From ChEMBL document CHEMBL1201862, “PubChem BioAssay data set” (2004)
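Interpolation was linear, between the two tested concentrations surrounding the appropriate level; five concentrations were tested over 48 hours in 96-well plates. GI50 = concentration required for 50% inhibition of growth.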 The source made the active and inactive calls. No stated cut-off is given here; in the data, active = GI50 up to about 1.1 µM and inactive = higher.

How the values were obtained:
Experiment in all cases: NCI-60 cell line screen, 48 h
COLO 205 = test system: COLO 205
KM12 = test system: KM12
SF-295 = test system: SF-295
RPMI-8226 = test system: RPMI-8226
SNB-19 = test system: SNB-19
SK-MEL-2 = test system: SK-MEL-2
UACC-62 = test system: UACC-62
786-0 = test system: 786-0
T47D = test system: T47D
ACHN = test system: ACHN
SK-OV-3 = test system: SK-OV-3
OVCAR-3 = test system: OVCAR-3
SR = test system: SR
RXF 393 = test system: RXF 393
MDA-N = test system: MDA-N
MCF7 = test system: MCF7
UO-31 = test system: UO-31
EKVX = test system: EKVX
OVCAR-5 = test system: OVCAR-5
HOP-62 = test system: HOP-62
SK-MEL-5 = test system: SK-MEL-5
MDA-MB-231 = test system: MDA-MB-231
PC-3 = test system: PC-3
SW-620 = test system: SW-620
A498 = test system: A498
SK-MEL-28 = test system: SK-MEL-28
SN12C = test system: SN12C
Hs-578T = test system: Hs-578T
K562 = test system: K562
HCT-116 = test system: HCT-116
A549 = test system: A549
MDA-MB-435 = test system: MDA-MB-435
M14 = test system: M14
HCC 2998 = test system: HCC 2998
NCI-H460 = test system: NCI-H460
HT-29 = test system: HT-29
NCI-H23 = test system: NCI-H23
MOLT-4 = test system: MOLT-4
NCI-H522 = test system: NCI-H522
CCRF-CEM = test system: CCRF-CEM
U-251 = test system: U-251
DU-145 = test system: DU-145
OVCAR-4 = test system: OVCAR-4
OVCAR-8 = test system: OVCAR-8
LOX IMVI = test system: LOX IMVI
IGROV-1 = test system: IGROV-1
HL-60 = test system: HL-60
SF-268 = test system: SF-268
Malme-3M = test system: Malme-3M
NCI/ADR-RES = test system: NCI/ADR-RES
BT-549 = test system: BT-549
SNB-75 = test system: SNB-75
CAKI-1 = test system: CAKI-1
HCT-15 = test system: HCT-15
NCI-H226 = test system: NCI-H226

Measured: GI50

COC(=O)C1CC2CCC1(O[Si](C(C)C)(C(C)C)C(C)C)C(O)C2 (stereo not given)
16.9 µM: HCT-15
inactive: COLO 205 29.4 µM | KM12 17.6 µM | SF-295 20 µM | RPMI-8226 17.5 µM | SNB-19 19.1 µM | SK-MEL-2 15.1 µM | UACC-62 37 µM | 786-0 16.9 µM | T47D 25.8 µM | ACHN 22.8 µM | SK-OV-3 43.4 µM | OVCAR-3 17.3 µM | SR 13.6 µM | RXF 393 15 µM | MDA-N 22 µM | MCF7 14.9 µM | UO-31 16.6 µM | EKVX 16 µM | OVCAR-5 14.2 µM | HOP-62 18.4 µM | SK-MEL-5 23.1 µM | MDA-MB-231 17.7 µM | PC-3 20.7 µM | SW-620 26.4 µM | A498 96.6 µM | SK-MEL-28 19.4 µM | SN12C 17.9 µM | Hs-578T 18.1 µM | K562 12.4 µM | HCT-116 18.2 µM | A549 16.8 µM | MDA-MB-435 16.2 µM | M14 17.3 µM | HCC 2998 21.8 µM | NCI-H460 33.7 µM | HT-29 16.6 µM | NCI-H23 20.9 µM | MOLT-4 10.9 µM | NCI-H522 21.8 µM | CCRF-CEM 24.3 µM | U-251 16.5 µM | DU-145 16.4 µM | OVCAR-4 28.6 µM | OVCAR-8 14.9 µM | LOX IMVI 14.4 µM | IGROV-1 25.8 µM | HL-60 13.1 µM | SF-268 26.2 µM | Malme-3M 54.2 µM | NCI/ADR-RES 31.8 µM | BT-549 26.9 µM | SNB-75 21.9 µM | CAKI-1 38.5 µM | NCI-H226 21.2 µM
